Results on one molecule are retold here after US6673937B2, “Syntheses and methods of use of new antimitotic agents” (The University of Pittsburgh, priority 2000, dated 2004).

Assay [1] relates to bovine brain tubulin. The assay is described as follows: Inhibition of [3H]colchicine binding. The note with it: 5 μM compound; Mean ± SEM, N = 9. As to the method: Using methods described previously (Verdier-Pinard P, Lai J-Y, Yoo H-D, Yu J, Marquez B, Nagle DG, Nambu M, White JD, Falck JR, Gerwick WH, Day BW and Hamel E (1998) Structure-activity analysis of the interaction of curacin A, the potent colchicine site antimitotic agent, with tubulin and effects of analogs on the growth of MCF-7 breast cancer cells. Mol Phannacol 53:62-76.). 5,μM [^3H]colchicine was incubated with either 5% DMSO vehicle or compound (5 or 50 μM) at 37° C. for 15 min with 1 μM tubulin in the presence of 1 M monosodium glutamate, 0.1 M glucose-1-phosphate, 1 mM MgCl2, 1 mM GTP and 0.5 mg/ml bovine serum albumin. The solutions were filtered through two stacks of DEAE-cellulose filters and the radioactivity in the filtrate was determined by liquid scintillation spectrometry. Each series of determinations included positive controls of 5 and 50 μM curacin A. The inventors found no evidence that SR-7 could bind to the colchicine site of tubulin. […] The inventors propose that SR-7 may act at another site such as the previously characterized vinca alkaloid site.

A further assay has as its system bovine tubulin. The assay is described as follows: Tubulin hypernucleation without GTP. The class given is biochemical. The note with it: in vitro. As to the method:
(§1) The inventors examined the ability of SR-7 to alter tubulin polymerization or depolymerization in vitro. FIG. 28, Panel A. Compounds (predissolved in DMSO) were preincubated with tubulin containing monosodium glutamate at 30 ° C. for 15 min. Samples were cooled to 0 ° C. and GTP was added. Samples were placed in a temperature-controlled multi-cuvette holder of a spectrophotometer held at 0 ° C. Baselines were established and temperature was rapidly raised to 30 ° C. Turbidity development in the cuvettes was measured at 350 nm. FIG. 28, Panel B. Compounds were added to the tubulin plus monosodium glutamate mixture at 0 ° C., placed in the spectrophotometer and temperature was raised to 30 ° C. Addition of 0.4 mM GTP to isolated bovine brain tubulin produced robust polymerization that began to plateau approximately 20 min after microtubule assembly commenced (Panel A).

The test system of assay [2] is bovine brain tubulin. The experiment in a line: GTP-induced tubulin assembly (turbidity). Particulars: 40 μM. The class given is biochemical. As to the method:
Tubulin without microtubule-associated proteins was isolated from fresh bovine brains (Hamel E and Lin CM (1984). Separation of active tubulin and microtubule-associated proteins by ultracentrifugation and isolation of a component causing the formation of microtubule bundles. Biochemistry 23:4173-4184). Inhibition of assembly reactions was carried out as described previously (Verdier-Pinard P, Lai J-Y, Yoo H-D, Yu J, Marquez B, Nagle DG, Nambu M, White JD, Falck JR, Gerwick WH, Day BW and Hamel E (1998) Structure-activity analysis of the interaction of curacin A, the potent colchicine site antimitotic agent, with tubulin and effects of analogs on the growth of MCF-7 breast cancer cells. Mol Pharmacol 53:62-76.).
as §1

Another assay has as its target VHR (Homo sapiens, UniProt P51452). The assay is described as follows: In vitro inhibition of VHR. The class given is biochemical. Particulars: 30 μM, data not shown.
The target of the next assay is T1, PTPIB (Homo sapiens, UniProt P18031).
T1 sequence (P18031 1-435): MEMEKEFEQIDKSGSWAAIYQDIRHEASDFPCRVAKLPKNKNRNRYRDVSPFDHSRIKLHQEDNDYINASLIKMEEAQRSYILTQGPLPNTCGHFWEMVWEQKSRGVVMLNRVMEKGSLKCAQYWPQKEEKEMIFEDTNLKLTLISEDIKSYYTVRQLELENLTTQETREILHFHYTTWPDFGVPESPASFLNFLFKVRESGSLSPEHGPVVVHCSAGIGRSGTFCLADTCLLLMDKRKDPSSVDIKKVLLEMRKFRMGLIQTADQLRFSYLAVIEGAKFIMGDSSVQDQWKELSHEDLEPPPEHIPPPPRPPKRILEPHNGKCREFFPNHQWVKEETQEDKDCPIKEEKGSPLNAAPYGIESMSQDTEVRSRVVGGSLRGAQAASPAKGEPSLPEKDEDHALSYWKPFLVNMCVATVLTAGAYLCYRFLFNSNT
The experiment in a line: In vitro inhibition of PTPIB. The class given is biochemical. Particulars: 30 μM, data not shown.

Molecules are shown by their SMILES.

Sequence of VHR (P51452 whole entry, species assumed): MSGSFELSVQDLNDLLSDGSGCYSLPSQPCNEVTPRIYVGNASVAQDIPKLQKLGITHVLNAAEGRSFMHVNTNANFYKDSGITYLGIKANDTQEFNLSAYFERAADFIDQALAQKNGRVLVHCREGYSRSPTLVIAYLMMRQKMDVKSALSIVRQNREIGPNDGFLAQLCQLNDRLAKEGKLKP

With `O=C1C=CC2(Oc3cccc4cccc(c34)O2)c2cccc(OCc3ccco3)c21` [SR-7, 8-(furan-2-ylmethoxy)-1-oxo-1,4-dihydronaphthalene-4-spiro-2′-naphto [1″,8″-de][1′,3′] dioxin], in the assay with bovine brain tubulin [1], the “Percent inhibition of [3H]colchicine binding” value is listed as 1.5 ± 0.5%. Besides, the hypernucleation of tubulin entry in the assay on bovine tubulin is reported as “failed in vitro to hypernucleate bovine tubulin”. Also, the “inhibition of tubulin assembly” value in the assay on bovine brain tubulin [2] is reported as “only moderate inhibition of tubulin assembly”. For the same molecule, the “inhibition of VHR activity” value at VHR was “no inhibition”. Besides, the “inhibition of PTPIB activity” value against PTPIB is recorded as “no inhibition”.
